Legend:
[1] = refractive index (Na D-line) (dimensionless); xn = mol fraction of the nth substance listed; settings: 94.9 kPa, Liquid, (Schmidt +Haensch) refractometer (Model DSR lambda)
[2] = xn = mol fraction of the nth substance listed; settings: 94.9 kPa, Liquid, Vibrating tube method

C1COCCN1 [tetrahydro-1,4-oxazine] + CCCCCCCCCCO
Settings	mass density, 293.15 K [kg/m3]	mass density, 303.15 K [kg/m3]	mass density, 313.15 K [kg/m3]	mass density, 323.15 K [kg/m3]	mass density, 333.15 K [kg/m3]	refractive index, 293.15 K	refractive index, 303.15 K	refractive index, 313.15 K	refractive index, 323.15 K	refractive index, 333.15 K
[1], x1 = 0.0959	–	–	–	–	–	1.43851	1.43425	1.43051	1.42665	1.42296
[1], x1 = 0.1971	–	–	–	–	–	1.44011	1.43584	1.43195	1.42808	1.42408
[1], x1 = 0.2983	–	–	–	–	–	1.44177	1.4374	1.43335	1.42935	1.4252
[1], x1 = 0.3997	–	–	–	–	–	1.44353	1.43915	1.43498	1.43086	1.42655
[1], x1 = 0.4984	–	–	–	–	–	1.44523	1.4408	1.43652	1.43224	1.4278
[1], x1 = 0.5901	–	–	–	–	–	1.44686	1.44235	1.43799	1.43378	1.42913
[1], x1 = 0.6748	–	–	–	–	–	1.44835	1.44395	1.43952	1.43524	1.4304
[1], x1 = 0.7975	–	–	–	–	–	1.45055	1.44625	1.4419	1.43735	1.43224
[1], x1 = 0.9053	–	–	–	–	–	1.45253	1.44834	1.44365	1.43915	1.43382
[1], x1 = 1	–	–	–	–	–	1.45453	1.45031	1.44574	1.44113	1.43562
[2], x1 = 0.0959	842.65	835.47	828.35	821.08	813.99	–	–	–	–	–
[2], x1 = 0.1972	856.26	849.05	841.76	834.65	827.15	–	–	–	–	–
[2], x1 = 0.2983	870.74	863.32	855.74	848.36	840.7	–	–	–	–	–
[2], x1 = 0.3997	886.54	878.86	870.94	863.25	855.26	–	–	–	–	–
[2], x1 = 0.4984	902.71	894.8	886.64	878.61	870.39	–	–	–	–	–
[2], x1 = 0.5901	918.62	910.46	902.16	894.03	885.58	–	–	–	–	–
[2], x1 = 0.6748	933.78	925.53	916.99	908.75	900.13	–	–	–	–	–
[2], x1 = 0.7975	957.46	948.96	940.35	931.54	922.67	–	–	–	–	–
[2], x1 = 0.9053	980.12	971.33	961.51	952.35	943.05	–	–	–	–	–
[2], x1 = 1	999.54	989.89	979.82	969.78	959.74	–	–	–	–	–

CCCCCCCCO [octan-1-ol] + Cc1ccccc1
Settings	mass density, [2] [kg/m3]	refractive index, [1]
293.15 K, x1 = 0.1041	859.2	1.48465
293.15 K, x1 = 0.1973	853.95	1.4763
293.15 K, x1 = 0.3018	848.87	1.4681
293.15 K, x1 = 0.4033	844.52	1.46072
293.15 K, x1 = 0.5035	840.66	1.45442
293.15 K, x1 = 0.6007	837.23	1.44894
293.15 K, x1 = 0.6996	834.03	1.44373
293.15 K, x1 = 0.793	831.2	1.43912
293.15 K, x1 = 0.9044	828.07	1.4338
293.15 K, x1 = 1	825.57	1.4295
298.15 K, x1 = 0.1041	854.47	1.48192
298.15 K, x1 = 0.1973	849.33	1.47333
298.15 K, x1 = 0.3018	844.4	1.46514
298.15 K, x1 = 0.4033	840.2	1.45795
298.15 K, x1 = 0.5035	836.46	1.45173
298.15 K, x1 = 0.6007	833.15	1.44634
298.15 K, x1 = 0.6996	830.05	1.44116
298.15 K, x1 = 0.793	827.33	1.43666
298.15 K, x1 = 0.9044	824.31	1.43178
298.15 K, x1 = 1	821.9	1.42748
303.15 K, x1 = 0.1041	849.63	1.47921
303.15 K, x1 = 0.1973	844.59	1.47041
303.15 K, x1 = 0.3018	839.8	1.46231
303.15 K, x1 = 0.4033	835.73	1.45514
303.15 K, x1 = 0.5035	832.13	1.44904
303.15 K, x1 = 0.6007	828.94	1.44377
303.15 K, x1 = 0.6996	825.95	1.43893
303.15 K, x1 = 0.793	823.32	1.43469
303.15 K, x1 = 0.9044	820.4	1.4298
303.15 K, x1 = 1	818.08	1.42561
308.15 K, x1 = 0.1041	844.83	1.47628
308.15 K, x1 = 0.1973	839.89	1.46762
308.15 K, x1 = 0.3018	835.26	1.45938
308.15 K, x1 = 0.4033	831.33	1.45234
308.15 K, x1 = 0.5035	827.86	1.44634
308.15 K, x1 = 0.6007	824.78	1.44118
308.15 K, x1 = 0.6996	821.9	1.43647
308.15 K, x1 = 0.793	819.36	1.43239
308.15 K, x1 = 0.9044	816.55	1.42757
308.15 K, x1 = 1	814.31	1.42369
313.15 K, x1 = 0.1041	840.03	1.47333
313.15 K, x1 = 0.1973	835.16	1.46463
313.15 K, x1 = 0.3018	830.67	1.45656
313.15 K, x1 = 0.4033	826.9	1.44956
313.15 K, x1 = 0.5035	823.56	1.44362
313.15 K, x1 = 0.6007	820.6	1.43864
313.15 K, x1 = 0.6996	817.82	1.43413
313.15 K, x1 = 0.793	815.37	1.43002
313.15 K, x1 = 0.9044	812.65	1.42559
313.15 K, x1 = 1	811.09	1.42169
318.15 K, x1 = 0.1041	835.18	1.47014
318.15 K, x1 = 0.1973	830.43	1.46186
318.15 K, x1 = 0.3018	826.08	1.45372
318.15 K, x1 = 0.4033	822.45	1.44685
318.15 K, x1 = 0.5035	819.25	1.44101
318.15 K, x1 = 0.6007	816.41	1.43601
318.15 K, x1 = 0.6996	813.74	1.43149
318.15 K, x1 = 0.793	811.38	1.4277
318.15 K, x1 = 0.9044	808.77	1.42342
318.15 K, x1 = 1	807.7	1.41973
323.15 K, x1 = 0.1041	831.72	1.46755
323.15 K, x1 = 0.1973	827.05	1.45882
323.15 K, x1 = 0.3018	822.76	1.45094
323.15 K, x1 = 0.4033	819.26	1.44415
323.15 K, x1 = 0.5035	816.18	1.43836
323.15 K, x1 = 0.6007	813.46	1.43341
323.15 K, x1 = 0.6996	810.87	1.42902
323.15 K, x1 = 0.793	808.58	1.42541
323.15 K, x1 = 0.9044	806.05	1.42136
323.15 K, x1 = 1	804.05	1.41783
333.15 K, x1 = 0.1041	822.45	1.46181
333.15 K, x1 = 0.1973	817.92	1.45314
333.15 K, x1 = 0.3018	813.92	1.44526
333.15 K, x1 = 0.4033	810.68	1.43873
333.15 K, x1 = 0.5035	807.88	1.43312
333.15 K, x1 = 0.6007	805.4	1.42831
333.15 K, x1 = 0.6996	803.05	1.42423
333.15 K, x1 = 0.793	800.97	1.42094
333.15 K, x1 = 0.9044	798.68	1.41714
333.15 K, x1 = 1	796.88	1.41407
